Laboratory results as given in patent publication US8889671B2, “Compounds and methods for treating bacterial infections” (AstraZeneca AB, priority 2013, dated 2014).
Converted amounts (≈) assume the structure as drawn. Read-outs that look alike come from different tables or passages of the source.

How the values were obtained:
Staphylococcus aureus [1] = assay: Modal MIC against S. aureus isolates of the thigh model; assay type: cell-based
Description: The S. aureus strains used included a methicillin-resistant isolate obtained from the American Type Culture Collection (ATCC33591) (MRSA). In addition, three S. aureus clinical isolates were utilized; (1) a methicillin sensitive isolate (MSSA); (2) a recent methicillin-resistant clinical isolate of the USA300 genotype (USA300) and (3) a recent methicillin-resistant clinical isolate of the USA100 genotype ([…]).
The MIC against each isolate was determined using the broth microdilution method following CLSI guidelines (Rayner et al. Clinical pharmacodynamics of linezolid in seriously ill patients treated in a compassionate use program. Clin Pharmacokinet 2003. 42:1411-23). Ten individual determinations were performed for each strain and the Modal MIC was used for all PK/PD calculations.

Clostridium difficile = assay: In vitro antibacterial activity of Example 5 against anaerobes (MIC, agar dilution); assay type: cell-based; conditions: Clostridioides difficile
Haemophilus influenzae = assay: Susceptibility testing (MIC) Assay 2, broth microdilution; assay type: cell-based; conditions: ATCC51907, Haemophilus influenzae, ATCC 51907, in vivo strain, read-out: Hin MIC
Escherichia coli = assay: as above; assay type: cell-based; conditions: K12, read-out: Eco MIC
Pseudomonas aeruginosa = assay: as above; assay type: cell-based; conditions: PAO1, read-out: Pae MIC
Neisseria gonorrhoeae = assay: In vitro antibacterial activity of Example 5 (MIC, agar dilution); assay type: cell-based; conditions: 17 strains of Neisseria gonorrhoeae
[2] = system: Streptococcus constellatus; assay: In vitro antibacterial activity of Example 5 (MIC); assay type: cell-based
Enterobacter cloacae = assay: In vitro antibacterial activity of Example 5 (MIC); assay type: cell-based
Enterococcus faecium = assay: In vitro antibacterial activity of Example 5 (MIC); assay type: cell-based
[3] = system: Stenotrophomonas maltophilia; assay: In vitro antibacterial activity of Example 5 (MIC); assay type: cell-based
Staphylococcus aureus [4] = assay: S. aureus neutropenic mouse thigh infection model, PK/PD; conditions: for AUC value for 1-log reduction / AUC value for stasis: ip, with ABT
Streptococcus pyogenes = assay: Susceptibility testing (MIC) Assay 1, broth microdilution; assay type: cell-based; conditions: Streptococcus pyogenes, Streptococcus pyrgenes, in vivo strain; read-out: Spy MIC
Streptococcus pneumoniae = assay: as above; assay type: cell-based
Staphylococcus aureus [5] = assay: as above; assay type: cell-based; conditions: Staphylococcus aureus
[6] = S. aureus MRSA neutropenic dose response
[7] = S. aureus MRSA, neutropenic mouse thigh
[8] = S. aureus MSSA neutropenic dose response
[9] = S. aureus MSSA, neutropenic mouse thigh
[10] = S. aureus USA100, neutropenic mouse thigh
[11] = S. aureus USA100 neutropenic dose response
[12] = S. aureus USA300, neutropenic mouse thigh
[13] = S. aureus USA300 neutropenic dose response

## C[C@@H]1CN2c3c(cc4c(N5C(=O)OC[C@@H]5C)noc4c3F)CC3(C(=O)NC(=O)NC3=O)[C@H]2[C@H](C)O1 [Example 5, (2R,4S,4aS)-11-Fluoro-2,4-dimethyl-8-[(4S)-4-methyl-2-oxo-1,3-oxazolidin-3-yl]-1,2,4,4a-tetrahydro-2′H,6H-spiro[1,4-oxazino[4,3-a][1,2]oxazolo[4,5-g]quinoline-5,5′-pyrimidine]-2′,4′,6′(1′H,3′H)-trione]
Staphylococcus aureus [1]; ATCC 33591 / MRSA, S. aureus MRSA (ATCC33591)
  MIC: 0.125 µg/mL (≈ 0.256 µM)
Staphylococcus aureus [1]; S. aureus MSSA clinical isolate
  MIC: 0.0625 µg/mL (≈ 0.128 µM)
Staphylococcus aureus [1]; S. aureus USA100 clinical isolate
  MIC: 0.125 µg/mL (≈ 0.256 µM)
Staphylococcus aureus [1]; S. aureus USA300 clinical isolate
  MIC: 0.25 µg/mL (≈ 0.513 µM)
Clostridium difficile; ATCC70057, Clostridium difficile (ATCC 70057, CLSI QC Strain)
  MIC: 0.125 µg/mL (≈ 0.256 µM)
Clostridium difficile; Clostridium difficile
  MIC: 0.125 µg/mL (≈ 0.256 µM)
Haemophilus influenzae
  MIC: 0.33 µM (≈ 0.161 µg/mL)
Escherichia coli
  MIC: 4 µM (≈ 1.95 µg/mL)
Pseudomonas aeruginosa
  MIC: > 200 µM
Neisseria gonorrhoeae
  MIC90: 0.125 µg/mL (≈ 0.256 µM)
  MIC range: 0.03 to 0.25 µg/mL
[2]
  MIC: 0.03 µg/mL (≈ 0.0615 µM)
Enterobacter cloacae; Enterobacter cloacae (Chromosomal AmpC)
  MIC: 32 µg/mL (≈ 65.6 µM)
Enterobacter cloacae; Enterobacter cloacae, read-out: MIC
  MIC: 32 µg/mL (≈ 65.6 µM)
Enterococcus faecium
  MIC: 16 µg/mL (≈ 32.8 µM)
Enterococcus faecium; E. faecium
  MIC90: 16 µg/mL (≈ 32.8 µM)
Enterococcus faecium; Enterococcus faecium (Vancomycin-R, fluoroquinolone-R)
  MIC: 8 µg/mL (≈ 16.4 µM)
[3]
  MIC: > 64 µg/mL
Staphylococcus aureus [4]; [6]
  AUC/MIC (free), 1-log reduction ± SEM: 96 ± 35
  AUC/MIC (free), EC50 ± SEM: 53 ± 25
  AUC/MIC (free), Stasis ± SEM: 43 ± 5
Staphylococcus aureus [4]; [7]
  AUC value for 1-log reduction: 55 μg·h/mL
  AUC value for stasis: 24 µg·h/mL
Staphylococcus aureus [4]; [8]
  AUC/MIC (free), 1-log reduction ± SEM: 245 ± 81
  AUC/MIC (free), EC50 ± SEM: 71 ± 28
  AUC/MIC (free), Stasis ± SEM: 98 ± 17
Staphylococcus aureus [4]; [9]
  AUC value for 1-log reduction: 69 μg·h/mL
  AUC value for stasis: 28 µg·h/mL
Staphylococcus aureus [4]; [10]
  AUC value for 1-log reduction: 47 μg·h/mL
  AUC value for stasis: 25 µg·h/mL
Staphylococcus aureus [4]; [11]
  AUC/MIC (free), 1-log reduction ± SEM: 83 ± 23
  AUC/MIC (free), EC50 ± SEM: 34 ± 14
  AUC/MIC (free), Stasis ± SEM: 43 ± 5
Staphylococcus aureus [4]; [12]
  AUC value for 1-log reduction: 150 μg·h/mL
  AUC value for stasis: 91 µg·h/mL
Staphylococcus aureus [4]; [13]
  AUC/MIC (free), 1-log reduction ± SEM: 132 ± 16
  AUC/MIC (free), EC50 ± SEM: 73 ± 38
  AUC/MIC (free), Stasis ± SEM: 80 ± 5
Streptococcus pyogenes
  MIC: 0.36 µM (≈ 0.175 µg/mL)
Streptococcus pneumoniae; in vivo strain (footnote b), read-out: Spn(b) MIC
  MIC: 0.39 µM (≈ 0.19 µg/mL)
Streptococcus pneumoniae; in vivo strain (footnote c), read-out: Spn(c) MIC
  MIC: 0.46 µM (≈ 0.224 µg/mL)
Staphylococcus aureus [5]; Staphylococcus aureus in vivo strain, MSQS, read-out: Sau(d) MIC
  MIC: 0.36 µM (≈ 0.175 µg/mL)
Staphylococcus aureus [5]; in vivo strain, MRQR, read-out: Sau(e) MIC
  MIC: 0.78 µM (≈ 0.38 µg/mL)
Staphylococcus aureus [5]; serum, read-out: Sau(f) MIC
  MIC: 0.71 µM (≈ 0.346 µg/mL)
